# According to ChEMBL document CHEMBL4011620, “Design and Discovery of N-(2-Methyl-5'-morpholino-6'-((tetrahydro-2H-pyran-4-yl)oxy)-[3,3'-bipyridin]-5-yl)-3-(trifluoromethyl)benzamide (RAF709): A Potent, Selective, and Efficacious RAF Inhibitor Targeting RAS Mutant Cancers” (J Med Chem, 2017):
# What was measured:
# Mus musculus [1] = assay: In vivo inhibition of ERK1/2 phosphorylation at Thr202/Tyr204 and Thr185/Tyr187 in mouse xenografted with human Calu6 cells at 200 mg/kg, po administered as single dose measured up to 24 hrs post dose; format: functional; details: Calu-6, po
# [2] = Volume of distribution at steady state in mouse at 1 mg/kg, iv or 3 mg/kg, po; format: ADME, organism-based; details: in vivo, read-out: Vdss
# Calu-6 [3] = assay: Antitumor activity against human Calu6 cells xenografted in nude mouse assessed as tumor regression at 200 mg/kg/day, po administered for 15 days starting on day 12 post tumor implantation measured on day 27 relative to control; format: functional
# Mus musculus [4] = assay: Toxicity in nude mouse xenografted with human Calu6 cells assessed as body weight loss at 10 to 200 mg/kg/day, po administered for 15 days starting on day 12 post tumor implantation measured twice per week of compound dosing; format: organism-based; details: in vivo, 360 h
# [5] = Volume of distribution at steady state in dog at 0.3 mg/kg, iv or 1 mg/kg, po; format: ADME, organism-based, Canis lupus familiaris; details: in vivo, read-out: Vdss
# [6] = target: T1, Discoidin domain-containing receptor 2 (Homo sapiens) (UniProt Q16832); assay: Binding affinity to human DDR2 (555 to 855 residues) expressed in mammalian expression system at 1 uM by kinome scan assay relative to control
# T1 sequence (whole entry): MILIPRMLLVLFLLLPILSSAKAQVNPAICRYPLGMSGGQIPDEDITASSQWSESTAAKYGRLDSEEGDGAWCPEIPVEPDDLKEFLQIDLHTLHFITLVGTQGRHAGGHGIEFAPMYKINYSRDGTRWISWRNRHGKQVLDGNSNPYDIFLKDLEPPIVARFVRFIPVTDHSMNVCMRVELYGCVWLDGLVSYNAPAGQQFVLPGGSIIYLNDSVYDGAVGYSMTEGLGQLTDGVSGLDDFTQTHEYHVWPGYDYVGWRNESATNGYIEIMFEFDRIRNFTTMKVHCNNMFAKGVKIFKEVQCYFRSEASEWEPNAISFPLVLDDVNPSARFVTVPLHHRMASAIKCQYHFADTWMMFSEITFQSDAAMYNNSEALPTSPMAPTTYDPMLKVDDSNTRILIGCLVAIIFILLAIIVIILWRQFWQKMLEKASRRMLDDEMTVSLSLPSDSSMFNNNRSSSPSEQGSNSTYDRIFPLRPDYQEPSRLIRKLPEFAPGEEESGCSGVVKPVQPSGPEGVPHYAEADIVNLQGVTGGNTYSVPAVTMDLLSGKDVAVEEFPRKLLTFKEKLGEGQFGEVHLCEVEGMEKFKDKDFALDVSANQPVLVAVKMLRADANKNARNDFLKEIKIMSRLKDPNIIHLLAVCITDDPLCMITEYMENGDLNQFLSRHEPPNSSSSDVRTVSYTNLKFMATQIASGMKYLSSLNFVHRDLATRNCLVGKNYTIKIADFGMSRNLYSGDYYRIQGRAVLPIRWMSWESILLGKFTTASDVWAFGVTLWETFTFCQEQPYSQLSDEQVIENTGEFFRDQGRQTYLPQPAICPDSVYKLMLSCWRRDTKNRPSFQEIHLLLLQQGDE
# [7] = Protein binding in mouse plasma; format: ADME, cell-free; details: read-out: PPB (converted)
# [8] = Solubility of compound at pH 6.8 by shake-flask assay; details: buffer
# [9] = test system: Serine/threonine-protein kinase B-raf (Homo sapiens), P15056 [V600E]; assay: Binding affinity to human BRAF V600E mutant (429 to 741 residues) expressed in mammalian expression system at 1 uM by kinome scan assay relative to control
# Sequence of Serine/threonine-protein kinase B-raf (Homo sapiens), P15056 [V600E] (P15056 whole entry V600E, the tested form may be a part): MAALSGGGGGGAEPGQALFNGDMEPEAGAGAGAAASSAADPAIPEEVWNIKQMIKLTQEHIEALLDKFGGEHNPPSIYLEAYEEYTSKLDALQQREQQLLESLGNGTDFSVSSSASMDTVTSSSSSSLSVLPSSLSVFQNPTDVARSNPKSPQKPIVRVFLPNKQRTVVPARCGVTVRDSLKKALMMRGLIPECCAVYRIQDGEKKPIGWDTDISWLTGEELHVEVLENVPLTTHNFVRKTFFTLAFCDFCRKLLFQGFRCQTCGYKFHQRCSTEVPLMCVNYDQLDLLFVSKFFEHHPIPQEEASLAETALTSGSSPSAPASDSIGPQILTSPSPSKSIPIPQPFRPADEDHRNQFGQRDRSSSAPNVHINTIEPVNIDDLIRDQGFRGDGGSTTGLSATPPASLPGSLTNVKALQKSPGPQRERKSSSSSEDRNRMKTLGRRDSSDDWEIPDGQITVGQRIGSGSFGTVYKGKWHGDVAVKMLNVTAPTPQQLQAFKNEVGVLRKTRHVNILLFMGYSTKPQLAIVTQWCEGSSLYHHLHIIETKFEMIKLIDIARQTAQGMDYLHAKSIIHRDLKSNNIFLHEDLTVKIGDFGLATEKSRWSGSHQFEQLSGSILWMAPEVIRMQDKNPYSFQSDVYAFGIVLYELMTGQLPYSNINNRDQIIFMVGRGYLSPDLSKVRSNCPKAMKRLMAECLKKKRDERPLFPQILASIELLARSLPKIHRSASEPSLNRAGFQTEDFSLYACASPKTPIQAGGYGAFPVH
# [10] = Oral bioavailability in rat at 10 mg/kg; format: ADME, organism-based; details: in vivo
# [11] = Clearance in mouse at 1 mg/kg, iv or 3 mg/kg, po; format: ADME, organism-based; details: in vivo
# [12] = target: Platelet-derived growth factor receptor alpha (Homo sapiens) (UniProt P16234); assay: Binding affinity to human PDGFRalpha (330 to 640 residues) expressed in mammalian expression system at 1 uM by kinome scan assay relative to control
# Sequence of Platelet-derived growth factor receptor alpha (Homo sapiens) (P16234 whole entry, the tested form may be a part): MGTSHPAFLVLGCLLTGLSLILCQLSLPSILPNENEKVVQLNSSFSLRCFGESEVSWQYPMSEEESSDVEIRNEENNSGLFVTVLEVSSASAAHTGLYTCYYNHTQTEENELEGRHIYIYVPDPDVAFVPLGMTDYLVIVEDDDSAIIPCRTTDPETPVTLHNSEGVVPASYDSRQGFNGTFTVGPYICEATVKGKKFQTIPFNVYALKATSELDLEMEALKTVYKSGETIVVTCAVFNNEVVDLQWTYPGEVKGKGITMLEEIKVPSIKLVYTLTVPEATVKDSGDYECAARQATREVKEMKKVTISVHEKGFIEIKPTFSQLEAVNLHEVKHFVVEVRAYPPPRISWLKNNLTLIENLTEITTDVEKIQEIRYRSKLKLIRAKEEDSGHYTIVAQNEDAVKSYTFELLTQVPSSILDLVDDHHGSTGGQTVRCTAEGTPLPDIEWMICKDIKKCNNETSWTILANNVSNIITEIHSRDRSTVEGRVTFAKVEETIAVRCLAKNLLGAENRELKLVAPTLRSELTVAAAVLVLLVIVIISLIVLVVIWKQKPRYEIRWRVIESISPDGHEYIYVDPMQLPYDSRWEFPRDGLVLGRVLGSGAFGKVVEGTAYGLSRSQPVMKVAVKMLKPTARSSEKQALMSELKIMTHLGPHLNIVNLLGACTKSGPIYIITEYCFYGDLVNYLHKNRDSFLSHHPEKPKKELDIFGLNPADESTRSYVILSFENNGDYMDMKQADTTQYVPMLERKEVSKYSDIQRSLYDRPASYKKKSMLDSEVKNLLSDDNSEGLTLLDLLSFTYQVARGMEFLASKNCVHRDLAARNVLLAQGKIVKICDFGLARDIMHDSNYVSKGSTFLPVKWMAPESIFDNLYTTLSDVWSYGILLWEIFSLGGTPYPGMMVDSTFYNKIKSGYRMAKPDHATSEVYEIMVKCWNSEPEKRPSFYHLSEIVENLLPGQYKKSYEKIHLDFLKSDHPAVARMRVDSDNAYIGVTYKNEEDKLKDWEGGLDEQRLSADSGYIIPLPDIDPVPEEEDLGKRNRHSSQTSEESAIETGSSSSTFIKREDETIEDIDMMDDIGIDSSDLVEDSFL
# Mus musculus [13] = assay: Toxicity in nude mouse xenografted with human PC3 cells assessed as mortality at 200 mg/kg/day, po administered from day 12 until day 25 post tumor implantation; format: organism-based; details: in vivo
# [14] = Volume of distribution at steady state in rat at 3 mg/kg, iv or 10 mg/kg, po; format: ADME, organism-based; details: in vivo, read-out: Vdss
# [15] = test system: RAF proto-oncogene serine/threonine-protein kinase (Homo sapiens), P04049 [Y340E,Y341E]
# [16] = Protein binding in human plasma; format: ADME, cell-free; details: read-out: PPB (converted)
# [17] = AUC (infinity) in dog at 1 mg/kg, po; format: ADME, organism-based, Canis lupus familiaris; set-up: dose 1 mg/kg, time infinity, route oral; details: in vivo
# Calu-6 [18] = assay: Antitumor activity against human Calu6 cells xenografted in nude mouse assessed as effect on tumor volume at 10 mg/kg/day, po administered for 15 days starting on day 12 post tumor implantation measured on day 27 relative to control; format: functional
# [19] = Clearance in rat at 3 mg/kg, iv or 10 mg/kg, po; format: ADME, organism-based; details: in vivo
# [20] = Apparent permeability across apical to basolateral side in human Caco2 cells at pH 7.4 by LC/MS/MS analysis; details: Caco-2, pH 7.4
# Calu-6 [21] = assay: Antitumor activity against human Calu6 cells xenografted in nude mouse assessed as effect on tumor volume at 30 mg/kg/day, po administered for 15 days starting on day 12 post tumor implantation measured on day 27 relative to control; format: functional
# [22] = AUC (infinity) in rat at 10 mg/kg, po; format: ADME, organism-based; set-up: dose 10 mg/kg, route oral, time infinity; details: in vivo
# [23] = Oral bioavailability in mouse at 3 mg/kg; format: ADME, organism-based; details: in vivo
# [24] = target: Tyrosine-protein kinase FRK (Homo sapiens) (UniProt P42685); assay: Binding affinity to human FRK (215 to 503 residues) expressed in mammalian expression system at 1 uM by kinome scan assay relative to control
# Sequence of Tyrosine-protein kinase FRK (Homo sapiens) (P42685 whole entry, the tested form may be a part): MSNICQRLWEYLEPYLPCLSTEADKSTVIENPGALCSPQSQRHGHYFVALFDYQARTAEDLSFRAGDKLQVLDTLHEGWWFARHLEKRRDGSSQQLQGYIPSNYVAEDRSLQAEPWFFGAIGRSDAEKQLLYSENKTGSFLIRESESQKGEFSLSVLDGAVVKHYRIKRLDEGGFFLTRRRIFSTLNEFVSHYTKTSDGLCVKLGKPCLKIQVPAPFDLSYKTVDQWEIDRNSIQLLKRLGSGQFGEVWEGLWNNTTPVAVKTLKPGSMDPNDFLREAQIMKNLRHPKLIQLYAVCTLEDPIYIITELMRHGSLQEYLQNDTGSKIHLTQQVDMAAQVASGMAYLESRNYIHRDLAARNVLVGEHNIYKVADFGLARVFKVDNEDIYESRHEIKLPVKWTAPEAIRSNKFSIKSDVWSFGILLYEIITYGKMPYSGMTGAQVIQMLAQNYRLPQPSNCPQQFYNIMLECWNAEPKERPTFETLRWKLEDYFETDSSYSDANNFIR
# Plasma = assay: Plasma concentration in po dosed mouse xenografted with human Calu6 cells administered as single dose measured after 1 to 24 hrs post dose by LC-MS analysis; format: ADME, organism-based; details: in vivo
# [25] = Clearance in dog at 0.3 mg/kg, iv or 1 mg/kg, po; format: ADME, organism-based, Canis lupus familiaris; details: in vivo
# [26] = Metabolic stability in human plasma after 3 hrs; format: ADME, cell-free; details: read-out: Stability
# [27] = Cmax in dog at 1 mg/kg, po; format: ADME, organism-based, Canis lupus familiaris; set-up: dose 1 mg/kg, route oral; details: in vivo
# [28] = target: RAF proto-oncogene serine/threonine-protein kinase (Homo sapiens, UniProt P04049); assay: Activation of CRAF in human Calu6 cells assessed as increase in MEK phosphorylation after 2 hrs by FRET assay; format: cell-based
# [29] = Oral bioavailability in dog at 1 mg/kg; format: ADME, organism-based, Canis lupus familiaris; details: in vivo
# [30] = Metabolic stability in rat plasma after 3 hrs; format: ADME, cell-free; details: read-out: Stability
# Mus musculus [31] = assay: In vivo inhibition of ERK phosphorylation at Thr202/Tyr204 and Thr185/Tyr187 in po dosed mouse xenografted with human Calu6 cells administered as single dose measured after 1 to 24 hrs post dose; format: functional, organism-based
# [32] = Protein binding in dog plasma; format: ADME, cell-free, Canis lupus familiaris; details: read-out: PPB (converted)
structure (smiles),measurement,setting,value
Cc1ncc(NC(=O)c2cccc(C(F)(F)F)c2)cc1-c1cnc(OC2CCOCC2)c(N2CCOCC2)c1,inhibition in vivo at 200 mg/kg,Mus musculus [1],≥ 70%
same,Vd,[2],1.2 L/kg
same,Activity,Calu-6 [3],92%
same,Activity,Mus musculus [4],Non-Toxic
same,Vd,[5],3.1 L/kg
same,Activity,[6],86%
same,fraction unbound,[7],0.02
same,solubility thermodynamic,[8],200 µM
same,Activity,[9],> 99%
same,bioavailability,[10],24%
same,clearance,[11],35 mL/min/kg
same,Activity,[12],96%
same,Activity,Mus musculus [13],Non-Toxic
same,Vd,[14],3.5 L/kg
same,T1/2,[15],> 6.5 h
same,fraction unbound,[16],0.02
same,AUC(0-inf),[17],1 µM·h
same,T/C,Calu-6 [18],92%
same,clearance,[19],50 mL/min/kg
same,Papp A→B,[20],15 ×10⁻⁶ cm/s
same,T/C,Calu-6 [21],46%
same,AUC(0-inf),[22],1.5 µM·h
same,bioavailability,[23],68%
same,Activity,[24],92%
same,Drug uptake,Plasma,Dose-dependent effect
same,clearance,[25],14 mL/min/kg
same,remaining at 3 h,[26],101%
same,Cmax,[27],500 nM
same,Activity,[28],Not Active
same,bioavailability,[29],48%
same,remaining at 3 h,[30],85%
same,inhibition,Mus musculus [31],Dose-dependent effect
same,fraction unbound,[32],0.02
